According to ChEMBL document CHEMBL1156829 (Proc Natl Acad Sci U S A, 2008):

Experiments:
Plasmodium falciparum [1] = experiment: NOVARTIS: Inhibition of Plasmodium falciparum 3D7 (drug-susceptible) proliferation in erythrocyte-based infection assay; format: functional, organism-based; settings: Plasmodium falciparum, 3D7
Plasmodium falciparum [2] = experiment: NOVARTIS: Inhibition of Plasmodium falciparum W2 (drug-resistant) proliferation in erythrocyte-based infection assay; format: functional, organism-based; settings: Plasmodium falciparum, W2; read-out: EC50
[3] = NOVARTIS: Cytotoxicity against human hepatocellular carcinoma cell line (Huh7); format: toxicity, cell-based, Huh-7; settings: Huh7 cells (hepatocellular carcinoma cell line)

Structure (SMILES)	EC50 (Plasmodium falciparum [1])	EC50 (Plasmodium falciparum [2])	CC50 [3]
OC(CNC1CCCCC1)Cn1c2ccc(Br)cc2c2cc(Br)ccc21 (stereo not given)	451 nM	102 nM	6060 nM
COc1cc2nc(N3CCN(c4nc(N)c5cc(OC)c(OC)cc5n4)CC3)nc(N)c2cc1OC	91.1 nM	257 nM	14700 nM
Nc1ccc(-c2nc3cc(Oc4ccc5[nH]c(-c6ccc(N)cc6)nc5c4)ccc3[nH]2)cc1	683 nM	357 nM	21400 nM
COCCN1C(=O)C(O)=C(C(=O)c2ccccc2)C1c1ccccc1[N+](=O)[O-] (stereo not given)	> 12500 nM	1710 nM	> 100000 nM
N#Cc1c(-c2ccccc2)cc(N2CCN(Cc3ccc(Cl)cc3)CC2)n2c1nc1ccccc12	1120 nM	1710 nM	> 100000 nM
COc1ccc(C=CC(=O)Nc2ccc3nc(N4CCN(C)CC4)cc(C)c3c2)cc1OC	708 nM	946 nM	55200 nM
Clc1ccc(NCn2nnc3ccccc32)nc1	> 8200 nM	1690 nM	> 100000 nM
c1ccc(Cn2nnnc2CN2CCN(C(c3ccccc3)c3ccccc3)CC2)cc1	2870 nM	1670 nM	> 100000 nM
CCOC(=O)c1c(C)n(-c2ccccc2)c2ccc(OC(=O)C3CC3)cc12	749 nM	1720 nM	> 100000 nM
COCCNC(=O)C(c1ccc(C)cc1)N(Cc1ccccc1)C(=O)CCC(=O)Nc1nccs1 (stereo not given)	> 4590 nM	1720 nM	> 100000 nM
O=C(NC(CN1CCCC1)c1ccccc1)C1CCN(S(=O)(=O)c2ccc(Cl)cc2)CC1 (stereo not given)	160 nM	648 nM	36800 nM
CCN1CCN(CCCNC(=S)Nc2ccc3nc(N4CCCC4)cc(C)c3c2)CC1	256 nM	773 nM	44200 nM
Cc1n(N)c2ccccc2[n+]1CC(=O)c1ccccc1	2900 nM	1750 nM	> 100000 nM
CN(CCCNc1ccnc2cc(Cl)ccc12)C(=O)CC(C)(C)C	236 nM	173 nM	> 10000 nM
COc1ccc(-c2c[n+](Cc3ccc(Cl)c(Cl)c3)c3n2CCC3)cc1	537 nM	858 nM	49700 nM
Cc1ccccc1C[n+]1cc(-c2ccc(Cl)cc2)n2c1CCC2	1390 nM	1720 nM	> 100000 nM
Nc1c(C(=O)Nc2ccc(F)cc2)sc2nc3c(c(-c4cccs4)c12)CCCC3	1130 nM	1710 nM	> 100000 nM
CCC(C)N1CCN(Cc2cccc(OC)c2OC)CC1 (stereo not given)	> 1250 nM	> 169 nM	> 10000 nM
O=C(Cn1c(=O)oc2cc(S(=O)(=O)N3CCCC3)ccc21)Nc1cccnc1	> 951 nM	169 nM	> 10000 nM
O=C(Nc1ccc(Br)cc1C(=O)c1ccccc1)c1cc2nc(-c3cccs3)cc(C(F)(F)F)n2n1	> 12500 nM	1760 nM	> 100000 nM
COC(=O)CNC(c1ccccc1Cl)c1cc(Br)ccc1NS(=O)(=O)c1ccc(C)cc1 (stereo not given)	1920 nM	1760 nM	> 100000 nM
Cc1cc(NC(c2cccc(Br)c2)c2ccc3cccnc3c2O)no1 (stereo not given)	267 nM	400 nM	> 22800 nM
CCCCN1C(=O)/C(=C2/Sc3ccccc3N2C)SC1=Nc1cc(C)ccc1C	> 581 nM	> 175 nM	> 10000 nM
N=c1n(CCN2CCCCC2)c2ccccc2n1CC(O)c1ccc(Cl)c(Cl)c1 (stereo not given)	52.8 nM	224 nM	12800 nM
C[n+]1cccc2ccc3cccnc3c21	66.4 nM	140 nM	> 8030 nM
COc1ccc(-c2n(CC(=O)OC3CC(C)CCC3C(C)C)c3ccccc3[n+]2C)cc1 (stereo not given)	391 nM	233 nM	13400 nM
OC(Cn1nnc2ccccc21)Cn1c2ccc(Br)cc2c2cc(Br)ccc21 (stereo not given)	3370 nM	1350 nM	> 78000 nM
COc1cc(-c2nc(-c3cccc(Cl)c3)c(-c3ccccc3)[nH]2)cc(OC)c1O	583 nM	749 nM	43200 nM

Structure (SMILES)	EC50 (Plasmodium falciparum [1])	EC50 (Plasmodium falciparum [2])	CC50 [3]
CC(C)CC(NC(=O)C(=Cc1ccco1)NC(=O)c1ccccc1)C(=O)OCc1ccccc1 (stereo not given)	> 12500 nM	1730 nM	> 100000 nM
CCOC(=O)C(=CNc1ccccc1[N+](=O)[O-])C(=O)OCC	7990 nM	1730 nM	> 100000 nM
O=c1cccc2n1CC1CC2CN(Cc2cccc(O)c2)C1 (stereo not given)	> 12500 nM	1700 nM	> 100000 nM
CC(C)(C)CC(C)(C)Nc1c(-c2ccccc2OC(=O)C(c2ccccc2)c2ccccc2)nc2ccccn12	882 nM	36.5 nM	2150 nM
CCCC(C(=O)OCC)C(C)=NNc1ccccc1[N+](=O)[O-] (stereo not given)	1270 nM	1670 nM	> 100000 nM
C[n+]1ccccc1/C=C/C1=C(c2ccccc2)Oc2ccccc2O1	133 nM	249 nM	14900 nM
COC(=O)NCCNC(=O)COC(c1cccs1)c1cccnc1Cl (stereo not given)	185 nM	170 nM	> 10000 nM
CCOC(=O)c1ccc2c(c1)[n+](CC)c(/C=C/N(C)c1ccccc1)n2CC	272 nM	588 nM	34400 nM
Cc1ccc(NC(=O)N2CCN(C(=O)c3nc(-c4ccccc4)nc(C)c3C(=O)OC(C)C)CC2C)cc1 (stereo not given)	441 nM	171 nM	> 10000 nM
CC(=O)N(C1=C(N(C)C)C(=O)c2ccccc2C1=O)c1ccc(F)c(F)c1	16.1 nM	41.1 nM	2360 nM
O=[N+]([O-])c1ccc(NCCNc2nc(N3CCCC3)nc3ccccc23)cc1	564 nM	334 nM	19200 nM
CC12CN(Cc3ccccc3)CC(C)(CN(Cc3cccc(Br)c3)C1)C2	3620 nM	819 nM	47200 nM
c1ccc(-c2c3c(cc4ccccc24)C[N+]2(CCCC2)C3)cc1	1340 nM	1730 nM	> 100000 nM
CCOC(=O)c1sc(-c2cnccc2C(F)(F)F)nc1C	> 912 nM	172 nM	> 10000 nM
CCc1cccc(NC(=S)N2CCCC2c2ccccc2C(F)(F)F)c1 (stereo not given)	408 nM	170 nM	> 10000 nM
OCCC1CN(Cc2cccc(Cl)c2)CCN1Cc1ccccc1 (stereo not given)	> 12500 nM	1730 nM	> 100000 nM
c1ccc(Oc2cccc(CN3CCc4nc(N5CCCCC5)sc4C3)c2)cc1	294 nM	173 nM	> 10000 nM
Cc1ncc(CCCCN(C)C)c2c1[nH]c1ccccc12	472 nM	325 nM	18800 nM
Cc1ccc(NC2=C(c3ccc(C(F)(F)F)cc3)C(=O)c3ccccc32)cc1C	1240 nM	1690 nM	> 100000 nM
Cc1cc(N2CCN(C3CCCC3)CC2)n2c(nc3ccccc32)c1C#N	743 nM	1670 nM	> 100000 nM
COc1ccccc1N(CN1C(=O)c2ccc(Br)cc2C1=O)C(C)=O	> 1250 nM	> 171 nM	> 10000 nM
CCC[n+]1cccc2ccc3cccnc3c21	210 nM	756 nM	44300 nM
O=C(Nc1cc(Cl)cc(Cl)c1)C1C2C=CC3(O2)C1C(=O)N(CCC1=CCCCC1)C3C(=O)NC1CCCCC1 (stereo not given)	> 11000 nM	1710 nM	> 100000 nM
Cc1ccnc(NS(=O)(=O)c2ccc(NC(=O)C(C)C)cc2)n1	> 6150 nM	1690 nM	> 100000 nM
c1ccc(Nc2nc(NCC3CCCO3)c3ccccc3n2)cc1 (stereo not given)	114 nM	169 nM	> 10000 nM
O=C(c1ccncc1)N1CCN(Cc2ccc3c(c2)OCO3)CC1	964 nM	176 nM	> 10000 nM
CCCCCCCc1cc(O)c2c3c(c(=O)oc2c1)CCC(C)C3 (stereo not given)	1210 nM	1720 nM	> 100000 nM
